Assay results taken from patent publication US20070205140A1, “Method of Removing Sulfides Including Hydrogen Sulfide and Mercaptan” (K - I CHEMICAL INDUSTRY CO., LTD., priority 2004, published 2007).

Key:
[1] = Test Example 3: removal of hydrogen sulfide dissolved in water, methylene blue colorimetric method; details: for removal of hydrogen sulfide dissolved in water (in words): summary of Table 3; for Residual hydrogen sulfide concentration: water, test compound 500 ppm, stirring for 10 minutes, ND = complete removal
Experimental: Distilled water was bubbled with hydrogen sulfide gas. Thus, a hydrogen sulfide-dissolved solution (5 mgS/l) was prepared. The solution was placed in separate beakers. Then, formulations that were prepared in accordance with Test example 2 were separately added thereto in a manner such that the concentration of each test compound became 500 ppm, followed by stirring for 10 minutes. Thereafter, the residual hydrogen sulfide concentration was measured. The measurement was carried out using “Pack Tests” (Kyoritsu Chemical-Check Lab., Corp.) in accordance with a methylene blue colorimetric method.

[2] = Test Example 5: removal of hydrogen sulfide dissolved in water, 30 minutes stirring, methylene blue colorimetric method; details: for residual hydrogen sulfide (in words): summary of Table 5
Experimental: Distilled water was bubbled with a hydrogen sulfide gas. Thus, a solution containing dissolved hydrogen sulfide (5 mgS/l) was prepared. The solution was placed in separate beakers. Then, formulations that were prepared in accordance with Test example 4 were separately added thereto in a manner such that the concentration of each test compound became 500 ppm, followed by stirring for 30 minutes using a stirrer. Thereafter, the residual hydrogen sulfide concentration was measured. The measurement was carried out using “Pack Tests” (Kyoritsu Chemical-Check Lab., Corp.) in accordance with a methylene blue colorimetric method.

[3] = Test Example 1: removal of hydrogen sulfide from hexane, FPD gas chromatography; details: for Test sample A Hydrogen sulfide concentration: 100 ppm hydrogen sulfide, 100 ppm compound; for effect of removing hydrogen sulfide (in words): summary of Table 1
Experimental: Two 200-ml four-neck flasks were provided. Hexane (100 ml) was placed in the flask equipped with a bubbling device. In the other flask, iron sulfide underwent a reaction with the dropwise addition of hydrochloric acid, resulting the generation of hydrogen sulfide. Then, hexane was subjected to bubbling with hydrogen sulfide that had been transferred via a tube. Thus, test samples at a hydrogen sulfide concentration of 100 ppm were prepared. The measurement of hydrogen sulfide concentration was carried out by FPD gas chromatography (using a flame photometric detector). Stock solution of BNPA, DBNE, and BNP (100 ppm each) were separately added to the test samples, followed by stirring for a given period of time. The hydrogen sulfide concentration of each sample was measured in a time-dependent manner.

[4] = Test Example 2: removal of methyl mercaptan gas by formulation in closed bag, detector tube; details: for Methyl mercaptan gas concentration: 1 ml formulation, methyl mercaptan gas at 500 ppm; for effect of removing methyl mercaptan (in words): summary of Table 2
Experimental: A formulation containing BNPA was previously prepared in accordance with Formulation example 1. With the use of DBNE and BNP instead of BNPA, formulations containing DBNE and BNP, respectively, were prepared, in accordance with formulation example 1. Each formulation (1 ml) was dispensed into a glass petri dish covered with a plastic bag. Then, each plastic bag was closed after being filled with methyl mercaptan gas at 500 ppm. The methyl mercaptan gas was allowed to come into contact with the formulation for a given time. Thereafter, the methyl mercaptan gas concentration was measured using a detector tube.

[5] = Test Example 4: removal of hydrogen sulfide gas by formulation in closed bag, detector tube; details: for Hydrogen sulfide concentration: 1 ml formulation, 1 liter hydrogen sulfide gas at 500 ppm; for removal of hydrogen sulfide gas (in words): summary of Table 4
Experimental: A formulation containing BNPA was previously prepared in accordance with Formulation example 1. With the use of BNP instead of BNPA, a formulation containing BNP was prepared in accordance with formulation example 1.
Iron sulfide and hydrochloric acid were allowed to react with each other, resulting in the generation of hydrogen sulfide. Thus, hydrogen sulfide gas at a concentration of 500 ppm was prepared. Each formulation (1 ml) was placed in a glass petri dish covered with a plastic bag. Then, each plastic bag was closed after being filled with 1 liter of hydrogen sulfide gas. At 24 and 48 hours later, the hydrogen sulfide gas concentration was measured using a detector tube.

Row | Structure (SMILES) | removal of hydrogen sulfide dissolved in water (in words) [1] | Residual hydrogen sulfide concentration [1] [mgS/l] | residual hydrogen sulfide (in words) [2] | Residual hydrogen sulfide concentration ([2]; water 5 mgS/l, test compound 500 ppm, stirring for 30 minutes, ND = no hydrogen sulfide observed) [mgS/l] | Test sample A Hydrogen sulfide concentration ([3]; contact time 0 minutes) [ppm] | Test sample A Hydrogen sulfide concentration ([3]; contact time 10 minutes) [ppm] | Test sample A Hydrogen sulfide concentration ([3]; contact time 30 minutes) [ppm] | Test sample A Hydrogen sulfide concentration ([3]; contact time 60 minutes) [ppm] | effect of removing hydrogen sulfide (in words) [3] | Methyl mercaptan gas concentration ([4]; contact time 0 hours) [ppm] | Methyl mercaptan gas concentration ([4]; contact time 24 hours) [ppm] | Methyl mercaptan gas concentration ([4]; contact time 48 hours) [ppm] | effect of removing methyl mercaptan (in words) [4] | Hydrogen sulfide concentration ([5]; contact time 0 hours) [ppm] | Hydrogen sulfide concentration ([5]; contact time 24 hours) [ppm] | Hydrogen sulfide concentration ([5]; contact time 48 hours) [ppm] | removal of hydrogen sulfide gas (in words) [5]
1 | O=[N+]([O-])C(Br)(CO)CO [BNP, 2-bromo-2-nitro-1,3-propanediol] | very low capacity for removing hydrogen sulfide | 18 | residual hydrogen sulfide was observed | 1 | 100 | 81 | 77 | 68 | the removal efficiency was poor | 500 | 485 | 461 | almost no effect of removing methyl mercaptan | 500 | 480 | 470 | complete removal was not achieved
2 | CC(=O)OCC(Br)(COC(C)=O)[N+](=O)[O-] [BNPA, 2-bromo-2-nitropropane-1,3-diyl diacetate] | complete removal of hydrogen sulfide |  | no hydrogen sulfide was observed |  | 100 | 38 | 14 | 2 | had an effect of removing hydrogen sulfide | 500 | 283 | 0 | complete removal of methyl mercaptan gas was achieved after 48 hours | 500 | 210 | 0 | complete removal of hydrogen sulfide was achieved after 48 hours
3 | O=[N+]([O-])C(Br)(Br)CO [DBNE, 2,2-dibromo-2-nitroethanol] | confirmed to have an effect of removing hydrogen sulfide | 5 |  |  | 100 | 42 | 25 | 11 | had an effect of removing hydrogen sulfide | 500 | 358 | 29 | confirmed to have the effect of removing methyl mercaptan |  |  |  | 
